Among the test systems are MDA-MB-435; SNB-19; UO-31; CAKI-1; MDA-MB-231; MOLT-4; SR; SF-295; NCI-H460; SNB-75; M14; HCT-15; SK-MEL-2; SK-MEL-28; HCC 2998; UACC-257; SF-539.
Test in all cases: NCI anticancer screen, dose series, 48 h

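All cell lines were grown in 96-well plates and treated with compound for 48 hours. GI50 is the concentration that inhibits growth by half.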 Calls of active or inactive are those of the source. Cut-off read from the data, not from the text of the source: active = GI50 up to about 1.1 µM and inactive = higher.

`[O-]c1c[n+](CC[n+]2cc([O-])on2)no1`: the GI50 in the test with MDA-MB-435, in the test on SNB-19, with UO-31, in the test with CAKI-1, in the test on MDA-MB-231 and in the test with MOLT-4 was > 100 µM (inactive) in each case. Moreover, the GI50 is > 100 µM (inactive) in the test on SR; > 100 µM (inactive) in the test with SF-295; > 100 µM (inactive) with NCI-H460; > 100 µM (inactive) with SNB-75; > 100 µM (inactive) in the test with M14; > 100 µM in the test with HCT-15. Further, the GI50 in the test on SK-MEL-2, with SK-MEL-28, in the test on HCC 2998 and in the test with UACC-257 was > 100 µM (inactive) throughout.

Consider `COc1ccc2cc(C(C)C(=O)N3C(=O)OCC3(C)C)ccc2c1` (configuration not stated), for which the GI50 with MDA-MB-435, with SNB-19, with UO-31, in the test with MDA-MB-231, in the test on MOLT-4 and in the test on SR was > 100 µM (inactive) each time. Besides, the GI50 is > 100 µM (inactive) in the test on SF-295; > 100 µM (inactive) in the test with NCI-H460; 46.6 µM (inactive) with SNB-75; > 100 µM (inactive) with M14; > 100 µM with HCT-15; > 100 µM (inactive) in the test on SK-MEL-28. Further, the GI50 in the test on HCC 2998 and in the test on UACC-257 was > 100 µM (inactive) each time.

For the compound `c1ccc2c(CN3CCN(Cc4c[nH]c5ccccc45)CC3)c[nH]c2c1`, the GI50 in the test on MDA-MB-435 is 16.2 µM (inactive); in the test on SNB-19, 21.6 µM (inactive); in the test with UO-31, 14.6 µM (inactive); in the test with CAKI-1 it was 23.5 µM (inactive); with MDA-MB-231, 14.9 µM (inactive); with SR, 19.7 µM (inactive). In addition, the GI50 in the test on SF-295 is 16 µM (inactive); with NCI-H460, 12.7 µM (inactive); in the test on SNB-75 it was 13.3 µM (inactive); in the test on M14, 15.7 µM (inactive); with HCT-15, 20 µM; in the test on SK-MEL-2, 16.7 µM (inactive). Moreover, the GI50 with SK-MEL-28 was 17.9 µM (inactive); in the test on HCC 2998, 1.63 µM (inactive); in the test on UACC-257, 14.4 µM (inactive).

Take `CC(=O)OCC1OC(N2C(=S)N[C@H]([C@@H](O)[C@H](O)[C@H](O)CO)[C@H]2O)C(OC(C)=O)C(OC(C)=O)C1OC(C)=O` (some centres not stated): the GI50 in the test on MDA-MB-435, with SNB-19, in the test with SF-539, in the test with UO-31, in the test with CAKI-1 and with MDA-MB-231 was > 100 µM (inactive) in each case. Besides, the GI50 with MOLT-4 is > 100 µM (inactive); with SR, > 100 µM (inactive); in the test with SF-295, > 100 µM (inactive); in the test on NCI-H460, > 100 µM (inactive); in the test on M14, > 100 µM (inactive); with HCT-15, > 100 µM. Besides, the GI50 with SK-MEL-2, with SK-MEL-28, in the test on HCC 2998 and in the test on UACC-257 was > 100 µM (inactive) throughout.

As to `CO[C@H]1O[C@@H]2CO[C@@H](c3ccccc3)O[C@H]2[C@@H]2C/C=C\CCC[C@@]12O`, the GI50 in the test with MDA-MB-435 is 24 µM (inactive); in the test with SNB-19 it was 38.7 µM (inactive); with UO-31, 30.8 µM (inactive); in the test with CAKI-1, 33.4 µM (inactive); in the test on MDA-MB-231, 29 µM (inactive); in the test with MOLT-4, 17 µM (inactive). The GI50 in the test on SR is 20.3 µM (inactive); in the test on SF-295, 19.7 µM (inactive); in the test with NCI-H460 it was 16.8 µM (inactive); in the test on SNB-75 it was 59.6 µM (inactive); in the test with M14, 22.4 µM (inactive); in the test on HCT-15, 24.4 µM. The GI50 with SK-MEL-2 was 16 µM (inactive); with SK-MEL-28, 30.1 µM (inactive); in the test with HCC 2998, 12.7 µM (inactive); in the test with UACC-257, 18.5 µM (inactive).

`COC(=O)C1(CCCCCBr)CCCCCCCCCCC1=O` (configuration not stated): the GI50 in the test on MDA-MB-435 was 37.6 µM (inactive); in the test on SNB-19, > 100 µM (inactive); in the test on SF-539, 90.2 µM (inactive); in the test with UO-31, 16.7 µM (inactive); in the test on CAKI-1, 25.5 µM (inactive); in the test with MDA-MB-231 it was 36.6 µM (inactive). The GI50 is 17.9 µM (inactive) in the test with MOLT-4; 33.5 µM (inactive) in the test with SR; 35.6 µM (inactive) with SF-295; 58.6 µM (inactive) with NCI-H460; 40.2 µM (inactive) in the test on M14; 38.8 µM with HCT-15. Besides, the GI50 in the test on SK-MEL-2 is 28.9 µM (inactive); with SK-MEL-28 it was 35.3 µM (inactive); in the test with HCC 2998, 41.1 µM (inactive); with UACC-257, 23.7 µM (inactive).

As for `CC[C@]1(Cc2ccc(OC)c(OC)c2)C=[N+]([O-])O[C@H](OCc2ccccc2)[C@@H]1OC(C)=O`, the GI50 in the test on MDA-MB-435 was 38.4 µM (inactive); in the test with SNB-19, 58.3 µM (inactive); with UO-31, 32.1 µM (inactive); with CAKI-1, 24.8 µM (inactive); in the test on MDA-MB-231, 36.4 µM (inactive); in the test with MOLT-4, 6.34 µM (inactive). For the same compound, the GI50 is 24.3 µM (inactive) in the test with SR; 53.6 µM (inactive) with SF-295; 31 µM (inactive) in the test with NCI-H460; 30.5 µM (inactive) in the test with SNB-75; 33.5 µM (inactive) with M14; 29.8 µM with HCT-15. Also, the GI50 is 23 µM (inactive) in the test on SK-MEL-2, 25.8 µM (inactive) in the test with SK-MEL-28, 45.7 µM (inactive) with HCC 2998 and 21.3 µM (inactive) in the test with UACC-257.

Turning to `CCC1(C)N=c2c(ncn2N=C(C)C)=C(C(N)=O)N1` (configuration not stated), the GI50 in the test with MDA-MB-435, with SNB-19, in the test on SF-539, in the test on CAKI-1, in the test on MDA-MB-231 and in the test on SR was > 100 µM (inactive) each time. The GI50 is > 100 µM (inactive) with SF-295; > 100 µM (inactive) in the test with NCI-H460; > 100 µM (inactive) in the test with SNB-75; > 100 µM (inactive) in the test on M14; > 100 µM in the test with HCT-15; > 100 µM (inactive) in the test with SK-MEL-28. In addition, the GI50 in the test with HCC 2998 and with UACC-257 was > 100 µM (inactive) throughout.

For `CC(C)c1ccc2c(c1)C=C1OC(=O)[C@]3(C)CCC[C@@]2(C)C13` (some centres not stated), the GI50 with MDA-MB-435, in the test with SNB-19, with SF-539, in the test with UO-31, in the test with CAKI-1 and in the test with MDA-MB-231 was > 100 µM (inactive) in each case. Further, the GI50 with MOLT-4, in the test with SR, in the test on SF-295, in the test with NCI-H460, in the test on SNB-75 and in the test with M14 was > 100 µM (inactive) in each case. Also, the GI50 was > 100 µM with HCT-15, > 100 µM (inactive) in the test on SK-MEL-28, > 100 µM (inactive) with HCC 2998 and > 100 µM (inactive) with UACC-257.

Take `CCOC(=O)C1=C(c2ccccc2)C12N(Cc1ccccc1)C(=O)C2(c1ccccc1)c1ccccc1` (configuration not stated): the GI50 with MDA-MB-435 was 34.8 µM (inactive); with SNB-19, 96.8 µM (inactive); in the test with SF-539, 45.1 µM (inactive); in the test with UO-31, 28.8 µM (inactive); with MDA-MB-231, 29.9 µM (inactive); in the test with MOLT-4, 38.8 µM (inactive). Besides, the GI50 was 45.3 µM (inactive) in the test on SR; 41.5 µM (inactive) with SF-295; 28.2 µM (inactive) in the test with NCI-H460; 43.4 µM (inactive) in the test with M14; 30.8 µM with HCT-15; 24 µM (inactive) in the test on SK-MEL-2. Moreover, the values for the GI50 with SK-MEL-28, in the test with HCC 2998 and with UACC-257 were 74.3 µM (inactive), 28.1 µM (inactive) and 34.7 µM (inactive), respectively.

For the compound `COc1cc(CCN(C)C)cc(OC)c1OC`, the GI50 with MDA-MB-435, with SNB-19, with SF-539, in the test with CAKI-1, in the test with MDA-MB-231 and in the test on MOLT-4 was > 100 µM (inactive) each time. In addition, the GI50 in the test on SR is > 100 µM (inactive); with SF-295, > 100 µM (inactive); in the test with NCI-H460 it was > 100 µM (inactive); with SNB-75, > 100 µM (inactive); with M14, > 100 µM (inactive); with HCT-15 it was > 100 µM. Besides, the GI50 in the test with SK-MEL-2, in the test with HCC 2998 and in the test with UACC-257 was > 100 µM (inactive) in each case.

As for `CC1=CC(=O)N(n2c(C)n[nH]c2=O)C1=O`, the GI50 with MDA-MB-435, in the test with SNB-19, in the test on SF-539, in the test on UO-31, with CAKI-1 and in the test with MDA-MB-231 was > 100 µM (inactive) throughout. Moreover, the GI50 in the test on MOLT-4 is > 100 µM (inactive); in the test on SR, > 100 µM (inactive); with SF-295, > 100 µM (inactive); in the test on NCI-H460 it was > 100 µM (inactive); in the test with M14, > 100 µM (inactive); in the test on HCT-15, > 100 µM. For the same compound, the GI50 in the test on SK-MEL-2, in the test on HCC 2998 and in the test on UACC-257 was > 100 µM (inactive) throughout.

`O=C(O)CCC1(c2ccccc2)NC(=O)NC1=O` (configuration not stated): the GI50 in the test with MDA-MB-435, in the test on SF-539, with CAKI-1, in the test with MDA-MB-231, in the test with SR and in the test on SF-295 was > 100 µM (inactive) throughout. Further, the GI50 in the test on NCI-H460 was > 100 µM (inactive); with SNB-75, > 100 µM (inactive); in the test on HCT-15 it was > 100 µM; in the test with SK-MEL-2, > 100 µM (inactive); in the test on SK-MEL-28 it was > 100 µM (inactive); in the test with HCC 2998 it was > 100 µM (inactive). The GI50 in the test with UACC-257 was > 100 µM (inactive).

(Values after ChEMBL document CHEMBL1201862, “PubChem BioAssay data set” (2004).)
